Here are results for 4 compounds from patent US20090148445A1, “METHODS OF SENSITIZING CANCER TO THERAPY-INDUCED CYTOTOXICITY” (The Regents of the University of California, priority 2005, published 2009).

Like-named read-outs stand apart in the source and are kept apart here. A value given as a limit tells only on which side of the number the result lay.

The subject of series [1] is rituximab resistant Daudi RR1 cell line. Briefly: Sensitization to CDDP-induced apoptosis, propidium iodide flow cytometry, Daudi RR1. It is filed as cell-based. As to conditions: for potentiation of apoptosis in combination with CDDP: inhibitor 1 h. The procedure:
The rituximab resistant clone Daudi-RR1 was treated as in FIG. 1 above.
FIG. 4A compares the effect of Salinosporamide A and bortezomib on CDDP-induced apoptosis in Daudi RR1 cells.
FIG. 4B compares the effect of Salinosporamide A and DHMEQ on CDDP-induced apoptosis in Daudi RR1 cells.
Rituximab (chimeric anti-CD20 monoclonal antibody) has been used in the treatment of Non-Hodgkin's Lymphoma alone or in combination with chemotherapy. The clinical response has been very encouraging; however, some patients are initially unresponsive or develop resistance following treatment. In order to investigate the mechanism of rituximab resistance we have developed in our laboratory rituximab resistant clones from B-NHL cell lines. We have selected certain clones for further analysis of the underlying mechanism of resistance. […] We investigated whether Salinosporamide A can sensitize Daudi RR1 to CDDP-induced apoptosis.
Similar studies were performed as above in a) with Daudi RR1 cells.

Series [2] deals with rituximab sensitive and rituximab resistant B-NHL tumor cells. Briefly: Sensitization of B-NHL tumor cells to drug-induced apoptosis (conclusions). The format is cell-based. As for the experimental part: 1) Salinosporamide A at very low concentrations (0.1-10 nM) sensitizes both rituximab sensitive and rituximab resistant B-NHL tumor cells to drug-induced apoptosis.
Series [3] deals with B-NHL Daudi cell line (wild type). The series is described as follows: Sensitization to CDDP-induced apoptosis, propidium iodide flow cytometry, Daudi. As to conditions: for apoptosis by combination treatment with CDDP: inhibitor 1-15 nM 1 h. On the technique in general: A flow cytometer gives signals particle by particle.
Experimental: Daudi cells were treated for Ramos as in FIG. 1 above.
Daudi cells were treated with various concentrations of bortezomib or Salinosporamide A for 1 h and then treated with CDDP (10 μg/ml) for an additional 20 h and the cells were treated for apoptosis as described in FIG. 1 above.
Daudi cells were treated with various concentrations of DHMEQ (μM) and/or Salinosporamide A (nM) for 1 h and then treated with CDDP (10 μg/ml) for an additional 20 h. The cells were then harvested and tested for apoptosis as described in FIG. 1 above.
The CDDP resistant B-NHL Ramos cell line was treated with various concentrations of Salinosporamide A for one hour and then treated with predetermined nontoxic concentration of CDDP (15 μg/ml) for an additional 20 hours. The cells were then harvested and examined for apoptosis using the propidium iodide (PI) technique by flow cytometry examining DNA fragmentation. […] Similar studies were performed with the Daudi B-NHL cell line.
We examined the effect of Salinosporamide A and bortezomib in their ability to sensitize Daudi wild type cells to CDDP-induced apoptosis. The tumor cells were treated for one hour with various concentrations of Salinosporamide A or bortezomib (range 1-15 nM) and then treated with CDDP (10 μg/ml) for an additional 20 h. The cells were then examined for apoptosis as described above.
We examined the differential effects of Salinosporamide A and DHMEQ in their ability to sensitize Daudi to CDDP-induced apoptosis. Tumor cells were treated with different concentrations of DHMEQ (range 1-65 μM) and Salinosporamide A (range 1-50 nM) for 1 h and then treated with CDDP (10 μg/ml) for an additional 20 h and the cells were then examined for apoptosis as described above.
Series [4] relates to DR5. Briefly: DR5 expression by Western, Ramos. It is filed as cell-based.
Series [5] deals with HL60MX2. As to conditions: drug resistant HL60MX2; equal doses as for HL60; cited from earlier work.
Series [6] concerns Salinosporamide A resistant Daudi cells. Briefly: Rituximab-mediated sensitization to Salinosporamide A-induced apoptosis, Daudi. The format is cell-based. The note with it: rituximab 20 ug/ml 1 h, then Salinosporamide A 10 nM 20 h.
Series [7] deals with DR5. The series is described as follows: DR5 surface expression by flow cytometry, Ramos. The format is cell-based.
The subject of series [8] is PTEN. The series is described as follows: PTEN expression by western. The note with it: FIG. 15. It is filed as cell-based. The source says:
Further, most resistant tumor cells express low levels of PTEN, and PTEN is a target for therapeutic intervention, as well as a biomarker

For series [9], the system named is YY1. Briefly: YY1 expression by western blot in Ramos cells. It is filed as cell-based. The note with it: various concentrations, 24 hour exposure.
Source text: (§1) The expression of β-actin was used as a control.
as §1
For orientation: Immunoblotting shows a protein as a band on a membrane.

Series [10] deals with TRAIL-resistant Ramos cells. Briefly: Sensitization to TRAIL-induced apoptosis. The format is cell-based.
For series [11], the system named is Raf-kinase inhibitor protein (RKIP). Briefly: RKIP expression by western blot in Ramos cells. The format is cell-based. As for the experimental part:
Ramos cells were treated with 10 nM Salinosporamide A for various periods of time, and total cell lysates were examined for the expression of RKIP by western blot analysis. The expression of β-actin was used as a control.
RKIP is a member of the phosphotidylethanolamine-binding protein (PEBP) family. Ramos cells were treated with 10 nM Salinosporamide A for various periods of time, and total cell lysates were examined for the expression of RKIP by western blot analysis. The expression of β-actin was used as a control.

Series [12] has as its system pleiotrophin (PTN). The series is described as follows: Pleiotrophin (PTN) expression. The note with it: 5 nM. It is filed as cell-based. An excerpt: PTN has been reported to be elevated in tumor cells and in the circulation of cancer patients and is of prognostic significance. In addition, inhibition of PTN contributes to the sensitizing effect of Salinosporamide A. PTN is also a target for therapeutic intervention.

Series [13] has as its system DR5. Briefly: DR5 expression, rituximab resistant Ramos RR1. The note with it: rituximab resistant Ramos cells RR1. The format is cell-based.
For series [14], the system named is multiple myeloma cells. As to conditions: multiple myeloma cells resistant to conventional and bortezomib therapies; cited from earlier work.
Series [15] concerns Ramos B-NHL cells.
Experimental: Ramos cells were treated with rituximab (20 μg/ml) for 1 h and then treated with various concentrations of Salinosporamide A for an additional 20 h. The cells were then examined for apoptosis as described above in FIG. 1.
Ramos cells were cultured untreated or treated with rituximab (20 μg/ml) for 18 h. Thereafter, the cells were treated with adriamycin (ADR) (5 μg/ml) or with different concentrations of Salinosporamide A (0.1, 1.0, 10 nM) overnight. The cell lines were examined for apoptosis by flow cytometry using the propidium iodide method for measuring DNA fragmentation.
Ramos cells were treated with rituximab (20 ug/ml) (12 h to 18 h) and the cells were treated with various concentrations of Salinosporamide A (1-10 nM) for an additional 20 h and the cells were examined for apoptosis using the PI method detecting DNA fragmentation by flow cytometry.
Series [16] relates to YY1. The series is described as follows: YY1 transcription by RT-PCR. It is filed as cell-based.
Source text: as §1

Series [17] relates to caspase 9. Briefly: Caspase 9 activation by western (pro-caspase 9 level) in Ramos cells. It is filed as cell-based.
Experimental: The activation of capsase 9 was assessed by western as the level of pro-caspase 9 was reduced following treatment.
The conditions of series [18]: administered orally or intravenously; cited from earlier work.
Series [19] deals with B-NHL Ramos cell line. Briefly: Sensitization to CDDP-induced apoptosis, propidium iodide flow cytometry, Ramos. The procedure: The percent apoptotic cells was recorded. […] The treatment were performed in duplicates.
The subject of series [20] is Bcl-xL. The series is described as follows: Bcl-xL expression by western. The format is cell-based. As for the experimental part:
Bcl-xL expression was assessed by western.

In series [21] the test system is HL60. The note with it: drug sensitive HL60; equal doses as for HL60MX2; cited from earlier work.
The test system of series [22] is 60 human tumor cell lines. As to conditions: NCI screening panels of 60 human tumor cell lines; cited from earlier work.
Setting [23] is: DHMEQ (μM) or Salinosporamide A (nM) 1 h, then CDDP 10 μg/ml 20 h.
Setting [24] is: Daudi wild type, then CDDP 10 μg/ml 20 h.
The mark [25] stands for this setting: inhibitor 1 h, then CDDP 15 μg/ml 20 h.

`O=C(NC1=CC(=O)[C@H]2O[C@H]2[C@H]1O)c1ccccc1O` [DHMEQ, reference compound]: the “higher concentration used with DHMEQ as compared to Salinosporamide A for similar sensitization” value in series [1] (CDDP 10 μg/ml) is listed as 4,000 fold; in [3] (Daudi wild type, CDDP 10 μg/ml), 4,000 fold. In addition, the “sensitization to CDDP-induced apoptosis” value in [1] (setting [23]) is given as “sensitize cells to CDDP-induced apoptosis”; in series [3] (Daudi, DHMEQ 1-65 μM 1 h, then CDDP 10 μg/ml 20 h) it was “can sensitize Daudi cells to CDDP-induced apoptosis”. In [2] (B-NHL tumor cells, drug-induced apoptosis), the “increase in concentration required for sensitization as compared to Salinosporamide A” value is recorded as 4,000 fold.

Consider `C[C@@]12OC(=O)[C@]1([C@@H](O)[C@@H]1C=CCCC1)NC(=O)[C@@H]2CCCl` [Salinosporamide A], for which the DR5 expression entry in series [4] and in [13] was “upregulates DR5 expression” each time. Moreover, the cytotoxicity entry in series [5] and in [21] was “cytotoxic” in each case. Also, in [6], the “apoptosis by combination of rituximab and Salinosporamide A” value was “significant apoptosis and synergy was achieved”. In addition, in series [7], the DR5 surface expression entry is “upregulated DR5 surface expression”. Besides, the PTEN expression result in [8] (Salinosporamide A alone) was “induces the expression”. Besides, in series [8] (combination with rituximab), the “PTEN expression in combination with rituximab” value was “more was expressed”. The “levels of YY1 protein” value in series [9] is “decrease in the levels of YY1 protein”. Also, the “sensitization to CDDP-induced apoptosis” value in series [1] (setting [23]) is given as “sensitize cells to CDDP-induced apoptosis”; in series [1] (treated as Ramos, function of concentration) it was “significantly sensitized”. Also, the “potentiation of apoptosis in combination with CDDP” value in series [1] (then CDDP 10 μg/ml 20 h) is on record as “significant potentiation of apoptosis”. Besides, the “sensitization to TRAIL-induced apoptosis” value in [10] is reported as “sensitizes TRAIL-resistant Ramos cells to TRAIL-induced apoptosis”. For the same compound, the “levels of RKIP protein” value in series [11] (Ramos, 10 nM, 15 minute exposure) is reported as “increase in the levels of RKIP protein”. Further, the RKIP expression entry in [11] (Salinosporamide A alone, FIG. 15) is on record as “induces the expression”. Further, the “RKIP expression in combination with rituximab” value in series [11] (combination with rituximab, FIG. 15) is “more was expressed”. The “pleiotrophin (PTN) expression” value in series [12] is “inhibits the growth factor pleiotrophin (PTN) expression significantly”. For the same compound, in series [14], the induction of apoptosis result is on record as “induces apoptosis”. Further, the “cytotoxic effects of sole treatment” value in series [15] (Ramos, no rituximab, 0.1, 1.0, 10 nM overnight) is recorded as “no detectable cytotoxic effects”. Moreover, the “apoptosis by combination treatment with rituximab” value in series [15] (Ramos, rituximab 20 ug/ml 12-18 h, then Salinosporamide A 1-10 nM 20 h) is recorded as “significant apoptosis”. In addition, the “rituximab sensitization to Salinosporamide A-induced apoptosis compared with ADR” value in series [15] (Ramos, rituximab 20 μg/ml 18 h, ADR 5 μg/ml) was “greater than that achieved with ADR”. Also, the “apoptosis in rituximab pre-treated tumor cells” value is on record as “significant apoptosis” in [15] (Ramos, rituximab 20 μg/ml 18 h, Salinosporamide A 1 nM) and “less effective due to cell loss” in [15] (Ramos, rituximab 20 μg/ml 18 h, Salinosporamide A 10 nM). For the same compound, the “concentration at which synergistic activity with rituximab was detected” value in series [15] (Ramos, rituximab 20 ug/ml pre-treatment) is listed as “>= 1 nM”. In addition, the “rituximab sensitization to Salinosporamide A-induced apoptosis compared with CDDP” value in [15] (rituximab-mediated chemosensitization, FIG. 6) is reported as “higher level than CDDP”. The YY1 transcription entry in series [16] is listed as “inhibits YY1 transcription”. Further, the “concentrations that sensitize to drug-induced apoptosis” value in [2] (rituximab sensitive and rituximab resistant B-NHL tumor cells) was in the range of 0.1 to 10 nM. In series [3] (setting [24]), the “apoptosis by combination treatment with CDDP” value is given as “significant apoptosis by the combination treatment at all concentrations of inhibitors used”. Also, the “cytotoxicity of combination treatment with CDDP” value in [3] (Daudi, treated as Ramos, function of concentration) is “significant cytotoxicity was observed”; in [19] (setting [25]), “significant potentiation of cytotoxicity”. Besides, the “caspase 9 activation” value in [17] (Salinosporamide A alone) is recorded as “activates caspase 9”. Also, in series [17] (combination with CDDP), the “caspase 9 activation in combination with CDDP” value was “more caspase 9 was activated”. In addition, in series [18], the “anti-tumor effects in vivo” value is given as “exerted anti-tumor effects”. The “cytotoxicity of Salinosporamide A treatment alone” value in series [19] (1 and 10 nM, no CDDP) was “modest cytotoxicity”. In addition, the “concentration at which potentiation of cytotoxicity was mostly observed (significant synergistic cytotoxicity)” value in series [19] (setting [25]) is 0.1 nM. The “concentration inhibiting Bcl-xL expression” value in series [20] is less than 2.5 nM. The mean growth inhibition result in [22] is on record as “less than 10 nM”.

In the case of `CC(C)C[C@H](NC(=O)[C@H](Cc1ccccc1)NC(=O)c1cnccn1)B(O)O` [bortezomib, reference compound], in [1] (then CDDP 10 μg/ml 20 h), the “potentiation of apoptosis in combination with CDDP” value is listed as “significant potentiation of apoptosis”. Besides, the “apoptosis by combination treatment with CDDP” value in series [3] (setting [24]) is “significant apoptosis by the combination treatment at all concentrations of inhibitors used”.

Turning to rituximab [reference compound], the “sensitization of tumor cells to Salinosporamide A-induced apoptosis” value in [15] (rituximab 20 ug/ml pre-treatment) is reported as “can sensitize drug-resistant tumor cells to Salinosporamide A induced apoptosis”.
